pIC50, pKi: −log10 of the molar value. Read-outs that look alike come from different tables or passages of the source.

In patent publication US6909000B2, “Bridged bicyclic serine protease inhibitors” (Vertex Pharmaceuticals Incorporated, priority 2001, dated 2005) one finds IC50 and Ki data, which are given here for 16 molecules.

Assay [1] has as its system Cells containing hepatitis C virus (HCV) replicon. The assay can be described thus: HCV replicon cell assay, Taqman real-time RT-PCR of HCV RNA level. The assay is classed as cell-based. As to conditions: read-out: IC50 (concentration at which 50% inhibition of HCV RNA level is observed). As for the experimental part:
As set forth above, the compounds of this invention are capable of inhibiting the activity of HCV NS3-NS4A protease. In order to quantitate the activity of the compounds of this invention, cells containing HCV replicon were incubated with the compounds of this invention, and a Taqman Real Time PCR assay was conducted to determine the percentage inhibition of HCV RNA level and the IC50 were calculated therefrom. The result are shown below in Table 1:
Cells containing hepatitis C virus (HCV) replicon were maintained in DMEM containing 10% fetal bovine serum (FBS), 0.25 mg per ml of G418, with appropriate supplements (media A).
On day 1, replicon cell monolayer was treated with a trypsin:EDTA mixture, removed, and then dilutedh media A into a final concentration of 100,000 cells per ml wit. 10,000 cells in 100 ul are plated into each well of a 96-well tissue culture plate, and culture overnight in a tissue culture incubator at 37° C.
On day 2, compounds (in 100% DMSO) were serially diluted into DMEM containing 2% FBS, 0.5% DMSO, with appropriate supplements (media B). The final concentration of DMSO was maintained at 0.5% throughout the dilution series.
The media on the replicon cell monolayer was removed, and then media B containing various concentrations of compounds was added. Media B without any compound was added to other wells as no compound controls.
Cells were incubated with compound or 0.5% DMSO in media B for 48 hours in a tissue culture incubator at 37° C.
At the end of the 48-hour incubation, the media was removed, and the replicon cell monolayer was washed once with PBS and stored at −80° C. prior to RNA extraction.
Culture plates with treated replicon cell monolayers were thawed, and a fixed amount of another RNA virus, such as Bovine Viral Diarrhea Virus (BVDV) was added to cells in each well. RNA extraction reagents (such as reagents from RNeasy kits) were added to the cells immediately to avoid degradation of RNA. Total RNA was extracted according the instruction of manufacturer with modification to improve extraction efficiency and consistency. Finally, total cellular RNA, including HCV replicon RNA, was eluted and stored at −80° C. until further processing.
A Taqman real-time RT-PCR quantification assay was set up with two sets of specific primers and probe. One was for HCV and the other was for BVDV. Total RNA extractants from treated HCV replicon cells were added to the PCR reactions for quantification of both HCV and BVDV RNA in the same PCR well. Experimental failure was flagged and rejected based on the level of BVDV RNA in each well. The level of HCV RNA in each well was calculated according to a standard curve that is run in the same PCR plate. The percentage of inhibition or decrease of HCV RNA level due to compound treatment was calculated using the DMSO or no compound control as 0% of inhibition. The IC50 (concentration at which 50% inhibition of HCV RNA level is observed) was calculated from the titration curve of any given compound.

A further assay deals with HCV NS3-NS4A protease (Hepatitis C virus genotype 1a, UniProt P27958). The assay can be described thus: Ki determination, HPLC microbore assay with 5AB peptide substrate, tNS3 and KK4A cofactor. The assay is classed as biochemical. As for the experimental part: The Ki determinations were performed as follows. The Ki values for some compounds of the present invention are recited above in Table 1.
HPLC Microbore Method for Separation of 5AB Substrate and Products Substrate
NH2-Glu-Asp-Val-Val-(alpha)Abu-Cys-Ser-Met-Ser-Tyr-COOH Stock solution of 20 mM 5AB was made in DMSO w/0.2M DTT. This was stored in aliquots at −20 C.
Buffer: 50 mM HEPES, pH 7.8; 20% glycerol; 100 mM NaCl Total assay volume was 200 μL
The buffer was combined with KK4A, DTT, and tNS3; 177 μL of this solution was distributed each into wells of 96 well plate and incubated at 30° C. for ˜5-10 min. 3 μL of appropriate concentration of test compound dissolved in DMSO (DMSO only for control) was added to each well and incubate at 30° C. for 15 min. Reaction was initiated by addition of 20 μL of 200 μM 5AB substrate (20 μM concentration is equivalent or slightly lower than the Km for 5AB) and incubated for 20 min at 30° C. The reaction was terminated by addition of 50 μL of 10% TFA 200 μL aliquots were transferred to HPLC vials The SMSY product was isolated from substrate and KK4A by the method which follows. Microbore Separation Method • Instrumentation: • Hewlett Packard 1100 • Degasser G1322A • Binary pump G1312A • Autosampler G1313A • Column themostated chamber G1316A • Diode array detector G1315A • Column: Phenomenex Jupiter; 5 micron C18; 300 angstroms; • 150×2 mm; P/O 00F-4053-B0 • Column thermostat: 40° C. • Injection volume: 100 μL • Solvent A=HPLC grade water+0.1% TFA • Solvent B=HPLC grade acetonitrile+0.1% TFA
• Stop time: 17 min • Post-run time: 10 min

[2] abbreviates: 25 nM tNS3, 25 μM KK4A, 20 μM 5AB substrate, 30° C., pH 7.8, read-out: Ki.
Where [3] appears, read: HCV replicon cells, 48 hours incubation, 2% FBS, 0.5% DMSO.

Chain of HCV NS3-NS4A protease (P27958 1027-1208, other chains not shown): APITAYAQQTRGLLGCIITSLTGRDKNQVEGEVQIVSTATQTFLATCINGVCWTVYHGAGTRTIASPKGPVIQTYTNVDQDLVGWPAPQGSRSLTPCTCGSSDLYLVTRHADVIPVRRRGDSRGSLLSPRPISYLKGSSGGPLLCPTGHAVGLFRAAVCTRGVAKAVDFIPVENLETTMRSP

Consider `CCC[C@H](NC(=O)[C@@H]1[C@H]2CC[C@H](C2)N1C(=O)[C@@H](NC(=O)[C@@H](NC(=O)c1cnccn1)C1CCCCC1)C(C)C)C(=O)C(=O)NC1CC1` [Cmpd 1], for which, in assay [1] (48 h), the pIC50 is less than 6.00. For the same molecule, the pKi at HCV NS3-NS4A protease (setting [2]) was 6.66.

As to `CCC[C@H](NC(=O)C1[C@H]2CC[C@H](C2)N1C(=O)[C@@H](NC(=O)[C@@H](NC(=O)c1cnccn1)C1CCCCC1)C(C)(C)C)C(=O)C(=O)NC1CC1` (some centres unmarked) [Cmpd 2], the pIC50 in assay [1] (setting [3]) is 6.05. The same molecule gave a pKi on HCV NS3-NS4A protease of 7.05.

In the case of `CC(C)(C)[C@H](NC(=O)[C@@H](NC(=O)c1cnccn1)C1CCCCC1)C(=O)N1C(C(=O)NC(CC(F)F)C(=O)C(=O)NC2CC2)[C@H]2CC[C@@H]1C2` (some centres unmarked) [Cmpd 3], the pIC50 in assay [1] (setting [3]) was 6.20. At HCV NS3-NS4A protease, the pKi was 7.20.

As for `CCCC(NC(=O)[C@@H]1[C@H]2CC[C@H](C2)N1C(=O)[C@@H](NC(=O)[C@@H](NC(=O)[C@H](CNC(=O)OC)NC(=O)OC)C1CCCCC1)C(C)C)C(=O)C(=O)NC1CC1` (some centres unmarked) [Cmpd 4], the pIC50 in assay [1] (setting [3]) is less than 5.00. On HCV NS3-NS4A protease, this molecule had a pKi of 7.02.

As to `CCCC(NC(=O)[C@@H]1[C@H]2CC[C@H](C2)N1C(=O)[C@@H](NC(=O)[C@@H](NC(=O)[C@H](CNC(=O)OC)NC(=O)OC)C1CCCCC1)C(C)(C)C)C(=O)C(=O)NC1CC1` (some centres unmarked) [Cmpd 5], in assay [1] (setting [3]), the pIC50 is 5.85. The same molecule showed a pKi at HCV NS3-NS4A protease of 7.41.

In the case of `CCCC(NC(=O)[C@@H]1[C@H]2CC[C@H](C2)N1C(=O)[C@@H](NC(=O)[C@@H](NC(=O)[C@H](CNC(=O)OC)NC(=O)OC)C1CCCCC1)C(C)C)C(=O)C(=O)N[C@@H](C)c1ccccc1` (some centres unmarked) [Cmpd 6], in assay [1] (setting [3]), the pIC50 was 5.58. Also, the pKi on HCV NS3-NS4A protease was 7.02.

Consider `CCCC(NC(=O)[C@@H]1[C@H]2CC[C@H](C2)N1C(=O)[C@@H](NC(=O)[C@@H](NC(=O)[C@H](CNC(=O)OC)NC(=O)OC)C1CCCCC1)C(C)(C)C)C(=O)C(=O)N[C@@H](C)c1ccccc1` (some centres unmarked) [Cmpd 7], for which, in assay [1] (setting [3]), the pIC50 was 6.35. In addition, at HCV NS3-NS4A protease, the pKi is 7.31.

As to `CCCC(NC(=O)[C@@H]1[C@H]2CC[C@H](C2)N1C(=O)[C@@H](NC(=O)[C@@H](NC(=O)c1cnccn1)C1CCCCC1)C(C)(C)C)C(=O)C(=O)N[C@@H](C)c1ccccc1` (some centres unmarked) [Cmpd 8], the pIC50 in assay [1] (setting [3]) was 6.17. In addition, the pKi on HCV NS3-NS4A protease is 6.96.

On to `CCC[C@H](NC(=O)[C@@H]1[C@H]2CC[C@H](C2)N1C(=O)[C@@H](NC(=O)[C@@H](NC(=O)[C@H](C)NS(C)(=O)=O)C1CCCCC1)C(C)(C)C)C(=O)C(=O)NC1CC1` [Cmpd 9], for which, in assay [1] (48 h), the pIC50 was 5.37. Also, at HCV NS3-NS4A protease (setting [2]), the pKi was 7.26.

In the case of `C[C@H](NS(C)(=O)=O)C(=O)N[C@H](C(=O)N[C@H](C(=O)N1[C@@H]2CC[C@@H](C2)[C@H]1C(=O)N[C@@H](CC(F)F)C(=O)C(=O)NC1CC1)C(C)(C)C)C1CCCCC1` [Cmpd 10], in assay [1] (setting [3]), the pIC50 is 5.00. Besides, the pKi on HCV NS3-NS4A protease is 7.55.

As to `CCCC(NC(=O)[C@@H]1[C@H]2CC[C@H](C2)N1C(=O)[C@@H](NC(=O)[C@@H](NC(=O)[C@H](C)NS(C)(=O)=O)C1CCCCC1)C(C)(C)C)C(=O)C(=O)N[C@@H](C)c1ccccc1` (some centres unmarked) [Cmpd 11], in assay [1] (48 h), the pIC50 is 5.91. The pKi on HCV NS3-NS4A protease (setting [2]) is 7.30.

As to `CCC[C@H](NC(=O)[C@@H]1[C@H]2CC[C@H](C2)N1C(=O)[C@@H](NC(=O)[C@@H](NC(=O)c1ncc[nH]1)C1CCCCC1)C(C)(C)C)C(=O)C(=O)N[C@@H](C)c1ccccc1` [Cmpd 12], the pIC50 in assay [1] (setting [3]) was 6.39. In addition, the negative logarithm of the Ki (pKi) at HCV NS3-NS4A protease was 7.17.

With `CCC[C@H](NC(=O)[C@@H]1[C@H]2CC[C@H](C2)N1C(=O)[C@@H](NC(=O)[C@@H](NC(=O)c1ncc[nH]1)C1CCCCC1)C(C)(C)C)C(=O)C(=O)NC1CC1` [Cmpd 13], the pIC50 in assay [1] (setting [3]) is 6.60. The same molecule gave a pKi at HCV NS3-NS4A protease of 7.38.

With `CCC[C@H](NC(=O)[C@@H]1[C@H]2CC[C@H](CC2)N1C(=O)C(NC(=O)[C@@H](NC(=O)c1cnccn1)C1CCCCC1)C(C)(C)C)C(=O)C(=O)NC1CC1` (some centres unmarked) [Cmpd 14], the pIC50 in assay [1] (setting [3]) was 5.91. Further, the pKi on HCV NS3-NS4A protease was 6.90.

Consider `CCC[C@H](NC(=O)[C@@H]1[C@H]2CC[C@H](C2)N1C(=O)[C@@H](NC(=O)[C@@H](NC(=O)[C@H](C)NC(=O)C(C)(C)C)C1CCCCC1)C(C)(C)C)C(=O)C(=O)NC1CC1` [Cmpd 15], for which the pIC50 in assay [1] (setting [3]) was 5.89. The pKi on HCV NS3-NS4A protease is 7.18.

Consider `CCC[C@H](NC(=O)[C@@H]1[C@H]2CC[C@H](C2)N1C(=O)[C@@H](NC(=O)[C@@H](NC(=O)c1[nH]c(C)c(C)c1C(C)=O)C1CCCCC1)C(C)(C)C)C(=O)C(=O)NC1CC1` [Cmpd 16], for which, in assay [1] (setting [3]), the pIC50 was greater than 7.00. On HCV NS3-NS4A protease, this molecule showed a pKi of 7.27.
